Patent US8449898B2 (priority 2007, dated 2013)
Like-named read-outs stand apart in the source and are kept apart here.

Tests used:
[1] = system: Phytophthora infestans (the causal agent of tomato late blight); assay: whole plant or invertebrate; format: in vivo; conditions: for TLB Obsd (disease control rating): Table B
[2] = system: Pseudoperonospora cubensis (the causal agent of cucumber downy mildew); assay: Test B: cucumber downy mildew, preventive spray on cucumber seedlings; format: in vivo; conditions: for CDM Obsd (disease control rating): Table B
[3] = Phytophthora infestans, read-out: TLB Obsd, component (b) alone, 2 ppm
[4] = Phytophthora infestans, read-out: TLB Obsd, component (b) alone, 10 ppm
[5] = Phytophthora infestans, read-out: TLB Obsd, component (b) alone, 40 ppm
[6] = Phytophthora infestans, read-out: TLB Obsd, component (b) alone, 200 ppm
[7] = Pseudoperonospora cubensis, component (b) alone, 2 ppm, read-out: CDM Obsd
[8] = Pseudoperonospora cubensis, component (b) alone, 10 ppm, read-out: CDM Obsd
[9] = Pseudoperonospora cubensis, component (b) alone, 40 ppm, read-out: CDM Obsd
[10] = Pseudoperonospora cubensis, component (b) alone, 200 ppm, read-out: CDM Obsd

Fc1ccc(Oc2ccnc3cc(Cl)cc(Cl)c23)cc1 [quinoxyfen]
pest or weed control at 0.016 ppm ([1]; Phytophthora infestans, read-out: TLB Obsd, Table E, component (b) alone at 0.016 ppm): 9% | pest or weed control at 0.08 ppm ([1]; Phytophthora infestans, read-out: TLB Obsd, Table E, component (b) alone at 0.08 ppm): 24% | pest or weed control at 0.4 ppm ([1]; Phytophthora infestans, read-out: TLB Obsd, Table E, component (b) alone at 0.4 ppm): 26% | pest or weed control at 2 ppm ([1]; Phytophthora infestans, read-out: TLB Obsd, Table E, component (b) alone at 2 ppm): 9% | pest or weed control at 10 ppm ([1]; Phytophthora infestans, read-out: TLB Obsd, Table E, component (b) alone at 10 ppm): 9% | pest or weed control at 0.4 ppm ([1]; Phytophthora infestans, read-out: TLB Obsd, component (b) alone, 0.4 ppm): 0% | pest or weed control at 2 ppm [1, 3]: 7% | pest or weed control at 10 ppm [1, 4]: 7% | pest or weed control at 40 ppm [1, 5]: 0% | pest or weed control at 200 ppm [1, 6]: 0% | pest or weed control at 0.016 ppm ([2]; Pseudoperonospora cubensis, Table F, component (b) alone at 0.016 ppm, read-out: CDM Obsd): 26% | pest or weed control at 0.08 ppm ([2]; Pseudoperonospora cubensis, Table F, component (b) alone at 0.08 ppm, read-out: CDM Obsd): 26% | pest or weed control at 0.4 ppm ([2]; Pseudoperonospora cubensis, Table F, component (b) alone at 0.4 ppm, read-out: CDM Obsd): 26% | pest or weed control at 2 ppm ([2]; Pseudoperonospora cubensis, Table F, component (b) alone at 2 ppm, read-out: CDM Obsd): 26% | pest or weed control at 10 ppm ([2]; Pseudoperonospora cubensis, Table F, component (b) alone at 10 ppm, read-out: CDM Obsd): 26% | pest or weed control at 0.4 ppm ([2]; Pseudoperonospora cubensis, component (b) alone, 0.4 ppm, read-out: CDM Obsd): 0% | pest or weed control at 2 ppm [2, 7]: 0% | pest or weed control at 10 ppm [2, 8]: 0% | pest or weed control at 40 ppm [2, 9]: 0% | pest or weed control at 200 ppm [2, 10]: 0%

benthiovalicarb
TLB Obsd (disease control rating) ([1]; component (b) alone 0.4 ppm): 53% | TLB Obsd (disease control rating) ([1]; component (b) alone 2 ppm): 100% | TLB Obsd (disease control rating) ([1]; component (b) alone 10 ppm): 100% | TLB Obsd (disease control rating) ([1]; component (b) alone 40 ppm): 100% | CDM Obsd (disease control rating) ([2]; component (b) alone 0.4 ppm): 90% | CDM Obsd (disease control rating) ([2]; component (b) alone 2 ppm): 100% | CDM Obsd (disease control rating) ([2]; component (b) alone 10 ppm): 100% | CDM Obsd (disease control rating) ([2]; component (b) alone 40 ppm): 100% | CDM Obsd ([2]; component (b) alone 0.08 ppm (Compound 1 0 ppm)): 33% | CDM Obsd ([2]; component (b) alone 0.4 ppm (Compound 1 0 ppm)): 86% | CDM Obsd ([2]; component (b) alone 2 ppm (Compound 1 0 ppm)): 100% | CDM Obsd ([2]; component (b) alone 10 ppm (Compound 1 0 ppm)): 100% | CDM Obsd ([2]; component (b) alone 40 ppm (Compound 1 0 ppm)): 100%

O=C(Nc1ccccc1-c1ccc(Cl)cc1)c1cccnc1Cl [boscalid]
pest or weed control at 0.4 ppm ([1]; Phytophthora infestans, read-out: TLB Obsd (disease control rating), Table A, component (b) alone 0.4 ppm): 9% | pest or weed control at 2 ppm ([1]; Phytophthora infestans, read-out: TLB Obsd (disease control rating), Table A, component (b) alone 2 ppm): 17% | pest or weed control at 10 ppm ([1]; Phytophthora infestans, read-out: TLB Obsd (disease control rating), Table A, component (b) alone 10 ppm): 17% | pest or weed control at 40 ppm ([1]; Phytophthora infestans, read-out: TLB Obsd (disease control rating), Table A, component (b) alone 40 ppm): 17% | pest or weed control at 200 ppm ([1]; Phytophthora infestans, read-out: TLB Obsd (disease control rating), Table A, component (b) alone 200 ppm): 9% | pest or weed control at 0.04 ppm ([1]; Phytophthora infestans, read-out: TLB Obsd, component (b) alone, 0.04 ppm): 25% | pest or weed control at 2 ppm [1, 3]: 0% | pest or weed control at 10 ppm [1, 4]: 0% | pest or weed control at 40 ppm [1, 5]: 17% | pest or weed control at 200 ppm [1, 6]: 32% | pest or weed control at 0.4 ppm ([2]; Pseudoperonospora cubensis, Table A, component (b) alone 0.4 ppm, read-out: CDM Obsd (disease control rating)): 47% | pest or weed control at 2 ppm ([2]; Pseudoperonospora cubensis, Table A, component (b) alone 2 ppm, read-out: CDM Obsd (disease control rating)): 47% | pest or weed control at 10 ppm ([2]; Pseudoperonospora cubensis, Table A, component (b) alone 10 ppm, read-out: CDM Obsd (disease control rating)): 47% | pest or weed control at 40 ppm ([2]; Pseudoperonospora cubensis, Table A, component (b) alone 40 ppm, read-out: CDM Obsd (disease control rating)): 47% | pest or weed control at 200 ppm ([2]; Pseudoperonospora cubensis, Table A, component (b) alone 200 ppm, read-out: CDM Obsd (disease control rating)): 47% | pest or weed control at 0.4 ppm ([2]; Pseudoperonospora cubensis, Table G, component (b) alone at 0.4 ppm, read-out: CDM Obsd): 47% | pest or weed control at 2 ppm ([2]; Pseudoperonospora cubensis, Table G, component (b) alone at 2 ppm, read-out: CDM Obsd): 47% | pest or weed control at 10 ppm ([2]; Pseudoperonospora cubensis, Table G, component (b) alone at 10 ppm, read-out: CDM Obsd): 26% | pest or weed control at 40 ppm ([2]; Pseudoperonospora cubensis, Table G, component (b) alone at 40 ppm, read-out: CDM Obsd): 26% | pest or weed control at 200 ppm ([2]; Pseudoperonospora cubensis, Table G, component (b) alone at 200 ppm, read-out: CDM Obsd): 26% | pest or weed control at 0.04 ppm ([2]; Pseudoperonospora cubensis, component (b) alone, 0.04 ppm, read-out: CDM Obsd): 68% | pest or weed control at 2 ppm [2, 7]: 0% | pest or weed control at 10 ppm [2, 8]: 0% | pest or weed control at 40 ppm [2, 9]: 0% | pest or weed control at 200 ppm [2, 10]: 0%
